The record followed here is patent US7358249B2, “Heterocyclic compounds having inhibitory activity against HIV integrase” (Shionogi & Co., Ltd., priority 2002, dated 2008).

In general, melting point refers to the temperature of the solid-liquid transition.

Several values for one entry are separate records, joined by “and”; a condition that tells them apart may be missing. Identical values can stand only once.

The target in data set [1] is HIV integrase (Human immunodeficiency virus type 1 group M subtype B, UniProt P04585). The experiment in a line: integrase inhibition assay (microtiter plate, substrate DNA / target DNA). It is filed as biochemical. To be noted: integrase 30 pmol, incubated at 30° C. for 1 hour, OD at 405 nm; concentration at percent inhibition 50%; read-out: MIA, IC50 (ug/ml) (converted). On the procedure: The inhibitory activities against integrase of the presnt compounds were determined by the assay described below.
(1) Preparation of DNA Solutions
Substrate DNA and target DNA synthesized by Amersham Pharmacia Biotech, which sequences were indicated below, were dissolved in KTE buffer (composition: 100 mM KCl, 1 mM EDTA, 10 mM Tris-HCl (pH 7.6)) at a concentration of 2 pmol/μl and 5 pmol/μl, respectively. The DNA solutions were heated and then slowly cooled so that they were annealed with each complement.
(Sequence of Substrate DNA)
(2) Calculations of the percent inhibitions (IC50 values of test compounds)
Streptavidin, obtained from Vector Laboratories, was dissolved in 0.1 M carbonate buffer (composition: 90 mM Na2CO3, 10 mM NaHCO3) at a concentration of 40 μg/ml. After coating each well of microtiter plates (obtained from NUNC) with 50 μl of the above solution at 4° C. over night, each well was washed twice with PBS (composition: […], 0.27 mM KCl, 0.43 mM Na2HPO4, 0.14 mM KH2PO4) and blocked with 300 μl of 1% skim milk in PBS for 30 min. Additionally, each well was washed twice with PBS and added with 50 μl of the substrate DNA solution (2 pmol/μl). The microtiter plates were kept at room temperature for 30 min. Then, each well was washed twice with PBS and once with H2O.
Subsequently, to the each well prepared above were added 45 μl of the reaction buffer prepared from 12 μl of the buffer (composition: 150 mM MOPS (pH 7.2), 75 mM MnCl2, 50 mM 2-mercaptoethanol, 25% glycerol, 500 μg/ml bovine serum albumin-fraction V), 1 μl of target DNA (5 pmol/μ), and 32 μl of the distilled water. Additionally, 6 μl of either a test compound in DMSO or DMSO for positive control (PC) was mixed with the above reaction buffer, then 9 μl of an integrase solution (30 pmol) was added thereto and the mixture was mixed well. To the well of negative control (NC) was added 9 μl of the integrase dilution buffer (composition: 20 mM MOPS (pH7.2), 400 mM potassium glutamate, 1 mM EDTA, 0.1% NP-40, 20% glycerol, 1 mM DTT, 4 M urea).
The microtiter plates were incubated at 30° C. for 1 hour. The reaction solution was removed and each well was washed twice with PBS. Subsequently, each well of the microtiter plates was filled with 100 μl of anti-digoxigenin antibody labeled with alkaline phosphatase (Sheep Fab fragment: obtained from Boehringer) and incubated at 30° C. for 1 hour. Then, each well was washed twice with 0.05% Tween20 in PBS and once with PBS. Next, 150 μl of the Alkaline phosphatase reaction buffer (composition: 10 mM p-Nitrophenylphosphate (obtained from Vector Laboratories), 5 mM MgCl2, 100 mM NaCl, 100 mM Tris-HCl (pH 9.5)) was added to each well. The microtiter plates were incubated at 30° C. for 2 hours and the reaction was terminated by the addition of 50 μl of 1 N NaOH solution. The optical density (OD) at 405 nm of each well was measured and the percent inhibition was determined by the following expression. The percent inhibition (%)=100[1−{(C abs.−NC abs.)/(PC abs.−NC abs.)}]
C abs.; the OD of the well of the test compound
NC abs.: the OD of the negative control (NC)
PC abs.: the OD of the positive control (PC)
When the percent inhibition (%) is X % at a concentration of x μg/ml and the percent inhibition (%) is Y % at a concentration of y μg/ml, one of which is more than 50% and the other is less than 50%, IC50 can be determined by the following expression. IC50 (μg/ml)=x−{(X−50)(x−y)/(X−Y)}
Compound No. in the Table 1 is the same as compound No. of the above Examples.

`COC(=O)c1cc(C(=O)NCCO)c2cc(Cc3ccc(F)cc3)cnc2c1O` [Compound I-5, 3-(4-Fluorobenzyl)-8-hydroxy-5-(2-hydroxyethylcarbamoyl)quinoline-7-carboxylic acid methylester]: the melting point lay within 207 to 208 °C. In data set [1], the IC50 is 502 nM.
For the compound `COCCNC(=O)c1cc(C(=O)OC)c(O)c2ncc(Cc3ccc(F)cc3)cc12` [Compound I-6], the melting point was in the range of 152 to 154 °C. Besides, the IC50 in data set [1] is 412 nM.
The like results for `NC(=O)c1cc(C(=O)O)c(O)c2ncc(Cc3ccc(F)cc3)cc12` [Compound I-7, 5-Carbamoyl-3-(4-fluorobenzyl)-8-hydroxyquinoline-7-carboxylic acid] were, in that order, 265 to 266 °C and 705 nM.
The like results for `COC(=O)c1cc(N)c2cc(Cc3ccc(F)cc3)cnc2c1O` [Compound I-8, 5-Amino-3-(4-fluorobenzyl)-8-hydroxyquinoline-7-carboxylic acid methyl ester] were, in that order, 114 to 115 °C and 398 nM.
`CCOC(=O)Nc1cc(C(=O)OC)c(O)c2ncc(Cc3ccc(F)cc3)cc12` [Compound I-9, 5-Ethoxycarbonylamino-3-(4-fluorobenzyl)-8-hydroxyquinoline-7-carboxylic acid methyl ester] yielded a melting point of 205 to 206 °C. In data set [1], the IC50 is 703 nM.
For `COC(=O)c1cc(NC(C)=O)c2cc(Cc3ccc(F)cc3)cnc2c1O` [Compound I-10, 5-Acetylamino-3-(4-fluorobenzyl)-8-hydroxyquinoline-7-carboxylic acid methylester], the melting point was in the range of 243 to 245 °C. The IC50 in data set [1] was 1300 nM.
The like results for `COC(=O)c1cc(NS(C)(=O)=O)c2cc(Cc3ccc(F)cc3)cnc2c1O` [Compound I-12, 3-(4-Fluorobenzyl)-8-hydroxy-5-methanesulfonylaminoquinoline-7-carboxylic acid methyl ester] were, in that order, 189.5 to 190.5 °C and 1240 nM.
The like results for `COC(=O)c1cc(NC(C)C)c2cc(Cc3ccc(F)cc3)cnc2c1O` [Compound I-14, 3-(4-Fluorobenzyl)-8-hydroxy-5-isopropylaminoquinoline-7-carboxylic acid methylester] were, in that order, 121 to 122 °C and 1190 nM.
Regarding `COC(=O)c1cc(NC2CCCCC2)c2cc(Cc3ccc(F)cc3)cnc2c1O` [Compound I-15, 5-Cyclohexylamino-3-(4-fluorobenzyl)-8-hydroxyquinoline-7-carboxylic acid methylester], the melting point lay in the range of 75.5 to 77.5 °C. Also, the IC50 in data set [1] is 1620 nM.
On to `COC(=O)c1cc(N(C)C)c2cc(Cc3ccc(F)cc3)cnc2c1O` [Compound I-16, 5-Dimethylamino-3-(4-fluorobenzyl)-8-hydroxyquinoline-7-carboxylic acid methylester], for which the melting point was in the range of 62 to 63 °C. The IC50 in data set [1] is 451 nM.
As to `CN=C(Nc1cc(C(=O)OC)c(O)c2ncc(Cc3ccc(F)cc3)cc12)SC` [Compound I-19, 5-(2,3-Dimethylisothioureido)-3-(4-fluorobenzyl)-8-hydroxyquinoline-7-carboxylic acid methylester], the melting point was 198.5 to 199.5 °C. The IC50 in data set [1] is 1040 nM.
Take `COC(=O)c1cc(C(=O)N2CCN(C)CC2)c2cc(Cc3ccc(F)cc3)cnc2c1O` [Compound I-48, 3-(4-Fluorobenzyl)-8-hydroxy-5-(4-methyl-piperadine-1-carbonyl)quinoline-7-carboxylic acid methyl ester]: the melting point lay within 184 to 185 °C. In data set [1], the IC50 was 800 nM.
Consider `COC(=O)c1cc(C(=O)NCC(=O)N(C)C)c2cc(Cc3ccc(F)cc3)cnc2c1O` [Compound I-64, 5-(Dimethylcarbamoylmethylcarbamoyl)-3-(4-fluorobenzyl)-8-hydroxyquinoline-7-carboxylic acid methyl ester], for which the melting point lay within 198 to 199 °C. The IC50 in data set [1] was 979 nM.
Consider `COC(=O)c1cc(CO)c2cc(Cc3ccc(F)cc3)cnc2c1O` [Compound I-117, 3-(4-Fluorobenzyl)-8-hydroxy-5-hydroxymethylquinoline-7-carboxylic acid methyl ester], for which the melting point is 142 to 143 °C. In addition, the IC50 in data set [1] was 208 nM.
As for `COC(=O)c1cc(-c2n[nH]c(C)n2)c2cc(Cc3ccc(F)cc3)cnc2c1O` [Compound I-134, 3-(4-Fluorobenzyl)-8-hydroxy-5-(5-methyl-1H-[1,2,4]triazole-3-yl)quinoline-7-carboxylic acid methyl ester], the melting point was 200 to 202 °C and 195 to 196 °C. Also, the IC50 in data set [1] is 357 nM.
`COCCC(=O)Nc1cc(C(=O)OC)c(O)c2ncc(Cc3ccc(F)cc3)cc12` [Compound I-182, 3-(4-Fluorobenzyl)-8-hydroxy-5-(3-methoxy-propionylamino)-quinoline-7-carboxylic acid methyl ester] registered a melting point of 190 to 192 °C. For the same compound, the IC50 in data set [1] is 461 nM.
The compound `COC(=O)c1cc(N2CCOC2=O)c2cc(Cc3ccc(F)cc3)cnc2c1O` [Compound I-183, 3-(4-Fluorobenzyl)-8-hydroxy-5-(2-oxo-oxazolidine-3-yl)-quinoline-7-carboxylic acid methyl ester] returned a melting point of 152 to 153 °C. In data set [1], the IC50 is 353 nM.
